According to patent US20260109707A1, “HETEROBIFUNCTIONAL COMPOUNDS AND METHODS OF TREATING DISEASE” (Halda Therapeutics OpCo. Inc., priority 2022, published 2026):
Read-outs that look alike come from different tables or passages of the source.

Legend:
T47D cells = experiment: Cellular growth inhibition assay for T47D cells (CellTiter-Glo, 72 hours); assay type: cell-based, human; settings: 72 hours treatment
In short: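 Luminescence from CellTiter-Glo 2.0 after 72 h of compound exposure gives the viability signal. Cells grew in insulin-supplemented (0.2 units/mL) DMEM with 10% FBS and were treated one day after seeding at 0.5% DMSO. GI50 values come from four-parameter nonlinear regression.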

VCaP cells = experiment: Cellular growth inhibition assay for VCaP cells (CellTiter-Glo, 72 hours); assay type: cell-based, human
In short: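 Luminescent viability signal after 72 h of compound exposure gave GI50 values by four-parameter nonlinear regression. Compounds were added in 0.5% DMSO to cells plated 24 h earlier at 5000/well in DMEM containing 10% FBS.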

[1] = tested on: T-Rex 293 cell line SC3 cells lacking increased expression of androgen receptor protein; experiment: Cellular growth inhibition assay, T-Rex 293 SC3 cells without doxycycline (CellTiter-Glo, 72 hours); assay type: cell-based; settings: T-Rex 293 cell line SC3 cells not exposed to doxycycline (lacking increased androgen receptor expression)
In short: (§1)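 Doxycycline (10 ng/mL) was either included or omitted to toggle wild-type androgen receptor expression in SC3 cells, a T-Rex 293 clone, grown in stripped-serum, phenol red-free medium. After 72 hours with compound, viable cells were quantified by CellTiter-Glo 2.0.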

[2] = tested on: T-Rex 293 cell line SC3 cells having increased expression of androgen receptor protein due to exposure to doxycycline; experiment: Cellular growth inhibition assay, T-Rex 293 SC3 cells with doxycycline (CellTiter-Glo, 72 hours); assay type: cell-based; settings: T-Rex 293 SC3 cells with increased androgen receptor expression due to doxycycline (10 ng/mL)
In short: as §1

Structure (SMILES)	GI50 (T47D cells; Homo sapiens, T47D, 72 h) [nM]	GI50 (VCaP cells; Homo sapiens, VCaP, 72 h) [nM]	GI50 ([1]; 72 h) [nM]	GI50 ([2]; 72 h) [nM]	GI50 (T47D cells) [nM]	GI50 (VCaP cells) [nM]	GI50 [1] [nM]	GI50 [2] [nM]
Cc1sc2c(c1C)C(c1ccc(C#CC3CC4(CCN(c5ccc(C(=O)N[C@H]6CC[C@H](Oc7ccc(C#N)c(Cl)c7)CC6)nn5)CC4)C3)cc1)=N[C@@H](Cc1ncco1)c1nnc(C)n1-2 [I-139]	< 500	< 500	< 500	< 500				
Cc1sc2c(c1C)C(c1ccc(C#CCN3[C@H](C)CN(c4ccc(C(=O)N[C@H]5CC[C@H](Oc6ccc(C#N)c(Cl)c6)CC5)nn4)C[C@@H]3C)cc1)=N[C@@H](Cc1ncco1)c1nnc(C)n1-2 [I-140]	< 500	< 500	< 500	< 500				
Cc1sc2c(c1C)C(c1ccc(C=C3CC4(CCCN(c5ccc(C(=O)NC6CCC(Oc7ccc(C#N)c(Cl)c7)CC6)nn5)C4)C3)cc1)=N[C@@H](Cc1ncco1)c1nnc(C)n1-2 (stereo partly drawn) [I-142, N-[4-(3-chloro-4-cyano-phenoxy)cyclohexyl]-6-[2-[[4-[(9S)-4,5,13-trimethyl-9-(oxazol-2-ylmethyl)-3-thia-1,8,11,12-tetrazatricyclo[8.3.0.02,6]trideca-2(6),4,7,10,12-pentaen-7-yl]phenyl]methylene]-6-azaspiro[3.5]nonan-6-yl]pyridazine-3-carboxamide]	< 500	< 500	< 500	< 500				
Cc1sc2c(c1C)C(c1ccc(C3CC3C3CC4(CCN(c5ccc(C(=O)N[C@H]6CC[C@H](Oc7ccc(C#N)c(Cl)c7)CC6)nn5)CC4)C3)cc1)=N[C@@H](Cc1ncco1)c1nnc(C)n1-2 (stereo partly drawn) [I-200]	< 500	< 500	< 500	< 500				
Cc1sc2c(c1C)C(c1ccc([C@@H]3C[C@H]3C3CC4(CCN(c5ccc(C(=O)N[C@H]6CC[C@H](Oc7ccc(C#N)c(Cl)c7)CC6)nn5)CC4)C3)cc1)=N[C@@H](Cc1ncco1)c1nnc(C)n1-2 [I-201]	< 500	< 500	> 3000	< 500				
Cc1sc2c(c1C)C(c1ccc([C@H]3C[C@@H]3CC3CCCN(c4ccc(C(=O)N[C@H]5CC[C@H](Oc6ccc(C#N)c(Cl)c6)CC5)nn4)C3)cc1)=N[C@@H](Cc1ncco1)c1nnc(C)n1-2 (stereo partly drawn) [I-202]	< 500	< 500	< 500	< 500				
Cc1sc2c(c1C)C(c1ccc(OC[C@H]3C[C@]4(CCCN(c5ccc(C(=O)N[C@H]6CC[C@H](Oc7ccc(C#N)c(Cl)c7)CC6)nn5)C4)C3)cc1)=N[C@@H](Cc1ncco1)c1nnc(C)n1-2 [I-206]					> 3000	> 3000	> 3000	500 to 1500
Cc1sc2c(c1C)C(c1ccc(CC[C@H]3C[C@@]4(CCCN(c5ccc(C(=O)N[C@H]6CC[C@H](Oc7ccc(C#N)c(Cl)c7)CC6)nn5)C4)C3)nc1)=N[C@@H](Cc1ncco1)c1nnc(C)n1-2 [I-207]	< 500	< 500	< 500	< 500				
Cc1sc2c(c1C)C(c1ccc(C3CN(C4CCN(c5ccc(C(=O)N[C@H]6CC[C@H](Oc7ccc(C#N)c(Cl)c7)CC6)nn5)C4)C3)cc1)=N[C@@H](Cc1ncco1)c1nnc(C)n1-2 (stereo partly drawn) [I-209]	< 500	< 500	< 500	< 500				
Cc1sc2c(c1C)C(c1ccc(C[C@H]3C[C@@]4(CN(c5ccc(C(=O)N[C@H]6CC[C@H](Oc7ccc(C#N)c(Cl)c7)CC6)nn5)CCO4)C3)cc1)=N[C@@H](Cc1ncco1)c1nnc(C)n1-2 [I-210]	500 to 1500	> 3000	> 3000	> 3000				
Cc1sc2c(c1C)C(c1ccc(C[C@H]3C[C@]4(CN(c5ccc(C(=O)N[C@H]6CC[C@H](Oc7ccc(C#N)c(Cl)c7)CC6)nn5)CCO4)C3)cc1)=N[C@@H](Cc1ncco1)c1nnc(C)n1-2 [I-211]	< 500	< 500	< 500	< 500				
Cc1sc2c(c1C)C(c1ccc(C3CN(C4CCN(c5ccc(C(=O)N[C@H]6CC[C@H](Oc7ccc(C#N)c(Cl)c7)CC6)nn5)CC4)C3)cc1)=N[C@@H](Cc1ncco1)c1nnc(C)n1-2 [I-212]	< 500	< 500	< 500	< 500				
Cc1sc2c(c1C)C(c1ccc(CC[C@H]3CC[C@@]4(CCCN(c5ccc(C(=O)N[C@H]6CC[C@H](Oc7ccc(C#N)c(Cl)c7)CC6)nn5)C4)C3)cc1)=N[C@@H](Cc1ncco1)c1nnc(C)n1-2 [I-213]	> 3000	> 3000	> 3000	> 3000				
Cc1sc2c(c1C)C(c1ccc(CC[C@@H]3CC[C@@]4(CCCN(c5ccc(C(=O)N[C@H]6CC[C@H](Oc7ccc(C#N)c(Cl)c7)CC6)nn5)C4)C3)cc1)=N[C@@H](Cc1ncco1)c1nnc(C)n1-2 [I-214]	> 3000	> 3000	> 3000	> 3000				
Cc1sc2c(c1C)C(c1ccc(CC[C@H]3CC[C@@]4(CCCN(c5ccc(C(=O)N[C@H]6CC[C@H](Oc7ccc(C#N)c(Cl)c7)CC6)nn5)C4)C3)cc1)=N[C@H](Cc1ncco1)c1nnc(C)n1-2 [I-215]	< 500	< 500	< 500	< 500				
Cc1sc2c(c1C)C(c1ccc(CC[C@@H]3CC[C@@]4(CCCN(c5ccc(C(=O)N[C@H]6CC[C@H](Oc7ccc(C#N)c(Cl)c7)CC6)nn5)C4)C3)cc1)=N[C@H](Cc1ncco1)c1nnc(C)n1-2 [I-216]	< 500	< 500	< 500	< 500				
Cc1sc2c(c1C)C(c1ccc(O[C@H]3CCCN(c4ccc(C(=O)N[C@H]5CC[C@H](Oc6ccc(C#N)c(Cl)c6)CC5)nn4)C3)cc1)=N[C@@H](Cc1ncco1)c1nnc(C)n1-2 [I-217]	> 3000	1500 to 3000	< 500	< 500				
Cc1sc2c(c1C)C(c1ccc(OC[C@@H]3CCCN(c4ccc(C(=O)N[C@H]5CC[C@H](Oc6ccc(C#N)c(Cl)c6)CC5)nn4)C3)cc1)=N[C@@H](Cc1ncco1)c1nnc(C)n1-2 [I-218]	500 to 1500	< 500	< 500	< 500				
Cc1sc2c(c1C)C(c1ccc(OC[C@H]3CCCN(c4ccc(C(=O)N[C@H]5CC[C@H](Oc6ccc(C#N)c(Cl)c6)CC5)nn4)C3)cc1)=N[C@@H](Cc1ncco1)c1nnc(C)n1-2 [I-219]	1500 to 3000	500 to 1500	1500 to 3000	< 500				
Cc1sc2c(c1C)C(c1ccc(O[C@H]3C[C@@]4(CCCN(c5ccc(C(=O)N[C@H]6CC[C@H](Oc7ccc(C#N)c(Cl)c7)CC6)nn5)C4)C3)nc1)=N[C@@H](Cc1ncco1)c1nnc(C)n1-2 [I-220]	500 to 1500	500 to 1500	> 3000	< 500				
Cc1sc2c(c1C)C(c1ccc(O[C@H]3C[C@@]4(CCCN(c5ccc(C(=O)N[C@H]6CC[C@H](Oc7ccc(C#N)c(Cl)c7)CC6)nn5)C4)C3)nc1)=N[C@H](Cc1ncco1)c1nnc(C)n1-2 [I-221]	> 3000	> 3000	> 3000	< 500				
Cc1sc2c(c1C)C(c1ccc(CCN3CCOC4(CCN(c5ccc(C(=O)N[C@H]6CC[C@H](Oc7ccc(C#N)c(Cl)c7)CC6)nn5)CC4)C3)cc1)=N[C@@H](Cc1ncco1)c1nnc(C)n1-2 [I-222]	< 500	< 500	500 to 1500	< 500				
Cc1sc2c(c1C)C(c1ccc(OC3CC4(CCN(c5ccc(C(=O)N[C@H]6CC[C@H](Oc7ccc(C#N)c(Cl)c7)CC6)nn5)CC4)C3)nc1)=N[C@@H](Cc1ncco1)c1nnc(C)n1-2 [I-223]	500 to 1500	< 500	500 to 1500	< 500				
Cc1sc2c(c1C)C(c1ccc(O[C@@H]3CCCN(c4ccc(C(=O)N[C@H]5CC[C@H](Oc6ccc(C#N)c(Cl)c6)CC5)nn4)C3)cc1)=N[C@@H](Cc1ncco1)c1nnc(C)n1-2 [I-224]	< 500	< 500	> 3000	< 500				
